# Values quoted from earlier work as cited in patent US20050065087A1, “Pharmaceutical compositions and methods comprising combinations of 2-alkylidene-19-nor-vitamin D derivatives and a bone morphogenetic protein” (Pfizer Inc., priority 2003, published 2005).
# Assays:
# [1] = system: male weanling rats on vitamin D-deficient diet; conditions: chronic 7 days, 130 and/or 260 pmol/day as tested
# [2] = system: male weanling rats on vitamin D-deficient diet; conditions: for bone calcium mobilization (in words): chronic 7 days, 130 and 260 pmol/day
# HL-60 cells = conditions: method of Ostrem et al.
Compound,intestinal calcium transport (in words) [1],"serum calcium value (text sentence) ([2]; 'twice the dose ... at the 130 pmol dose' as printed, 7 days) [mg/100 ml]",inducing differentiation of HL-60 cells to the monocyte (in words) (HL-60 cells),bone calcium mobilization (in words) [2],"bone calcium mobilization activity relative to the native hormone, 'possible' upper estimate ([2]; 130 pmol/day, chronic mode 7 days)","bone calcium mobilization activity relative to 1,25-(OH)2D3 (native hormone) ([2]; chronic mode 7 days, estimate in the text)"
"C=C1/C(=C\C=C2/CCC[C@]3(C)[C@@H]([C@H](C)CCCC(C)(C)O)CC[C@@H]23)C[C@@H](O)C[C@@H]1O [1,25-(OH)2D3, 1,25-dihydroxyvitamin D3, reference compound]",expected elevation,13.8,–,–,–,–
"C=C1[C@H](O)CC(=C/C=C2\CCC[C@]3(C)[C@@H]([C@H](C)CCCC(C)(C)O)CC[C@@H]23)C[C@H]1O [2-Methylene-19-Nor-1,25-(OH)2D3, 1α,25-dihydroxy-2-methylene-19-nor-vitamin D3]",no intestinal calcium transport activity,–,"activity similar to 1,25-(OH)2D3",extremely strong bone calcium mobilization,–,–
"C=C1[C@H](O)CC(=C/C=C2\CCC[C@]3(C)[C@@H]([C@@H](C)CCCC(C)(C)O)CC[C@@H]23)C[C@H]1O [2-Methylene-19-Nor-20S-1,25-(OH)2D3, (20S)-1α,25-dihydroxy-2-methylene-19-nor-vitamin D3]",no significant change,–,extremely potent,most potent compound tested,"100-1,000 times",at least 10 times
